Data as given in patent publication US20240376099A1, “COMPOUNDS AND COMPOSITIONS AS INHIBITORS OF ENDOSOMAL TOLL-LIKE RECEPTORS” (Novartis AG, priority 2016, published 2024).

molecular target: T1, TLR7 (Homo sapiens, UniProt Q9NYK1); test: huPBMC TLR7 Antagonist IFNα Assay; assay type: cell-based; settings: human PBMCs stimulated with ssRNA40 10 μg/mL (DOTAP), 14-16 hrs; IFNα2b AlphaLISA read-out
T1 construct: Fresh blood was collected from normal human donors; endogenous in cells; host or cells: human PBMCs from fresh donor blood
T1 sequence (Q9NYK1 27-1049): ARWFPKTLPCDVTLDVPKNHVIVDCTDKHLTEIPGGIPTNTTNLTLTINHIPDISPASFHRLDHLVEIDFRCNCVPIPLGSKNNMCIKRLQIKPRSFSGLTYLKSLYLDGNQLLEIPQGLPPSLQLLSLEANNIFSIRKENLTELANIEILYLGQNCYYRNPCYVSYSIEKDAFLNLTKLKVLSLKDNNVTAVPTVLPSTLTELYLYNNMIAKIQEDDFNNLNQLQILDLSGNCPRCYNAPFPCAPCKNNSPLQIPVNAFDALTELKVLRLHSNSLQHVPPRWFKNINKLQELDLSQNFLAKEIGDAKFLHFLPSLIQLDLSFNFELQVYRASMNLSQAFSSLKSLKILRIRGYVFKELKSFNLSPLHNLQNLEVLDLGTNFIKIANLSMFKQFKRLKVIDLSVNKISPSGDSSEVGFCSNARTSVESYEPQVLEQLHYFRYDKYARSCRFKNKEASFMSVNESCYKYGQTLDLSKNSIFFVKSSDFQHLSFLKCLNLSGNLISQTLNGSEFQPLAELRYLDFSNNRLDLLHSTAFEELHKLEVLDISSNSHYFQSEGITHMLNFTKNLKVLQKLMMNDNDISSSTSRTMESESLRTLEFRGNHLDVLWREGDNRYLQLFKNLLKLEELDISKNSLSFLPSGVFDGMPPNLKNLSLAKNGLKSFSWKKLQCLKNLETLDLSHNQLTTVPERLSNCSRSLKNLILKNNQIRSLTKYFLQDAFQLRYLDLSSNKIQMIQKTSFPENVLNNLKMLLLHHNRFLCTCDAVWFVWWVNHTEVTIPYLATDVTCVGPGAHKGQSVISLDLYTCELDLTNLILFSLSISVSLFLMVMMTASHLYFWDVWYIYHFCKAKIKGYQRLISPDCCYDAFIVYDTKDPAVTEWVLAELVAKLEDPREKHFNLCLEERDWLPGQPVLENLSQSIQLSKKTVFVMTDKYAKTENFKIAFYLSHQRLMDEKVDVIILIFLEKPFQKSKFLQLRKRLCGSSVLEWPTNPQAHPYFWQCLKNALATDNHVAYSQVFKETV
In short: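 Human PBMCs from fresh donor blood (150,000 cells/well) stimulated 14–16 h at 37 °C with DOTAP-complexed ssRNA40 (final 1 μg/ml for TLR8, 10 μg/mL for TLR7) or ODN2216 (final 0.3 μM, TLR9), 0.25% DMSO, ten-point 1/3 compound dilutions. Supernatant IL-6 read by HTRF (TLR8); IFNα by IFNα2b AlphaLISA (TLR7/TLR9).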

SMILES | IC50
Cc1cc(N2CCc3c(c(C)nn3CC34CCC(N5C[C@H](O)[C@@H](O)C5)(CC3)CC4)C2)c2cnn(C)c2n1 [compound 80, (3S,4S)-1-(4-((5-(1,6-dimethyl-1H-pyrazolo[3,4-b]pyridin-4-yl)-3-methyl-4,5,6,7-tetrahydro-1H-pyrazolo[4,3-c]pyridin-1-yl)methyl)bicyclo[2.2.2]octan-1-yl)pyrrolidine-3,4-diol] | 2 nM
Cc1nn(CC23CCC(N4CCCC4)(CC2)CC3)c2c1CN(c1ccnc(-c3ccccc3)c1)CC2 [compound 85, 3-methyl-5-(2-phenylpyridin-4-yl)-1-((4-(pyrrolidin-1-yl)bicyclo[2.2.2]octan-1-yl)methyl)-4,5,6,7-tetrahydro-1H-pyrazolo[4,3-c]pyridine] | 46 nM
Cc1cc(N2CCc3c(c(C)nn3CC34CCC(N5CCCC5)(CC3)CC4)C2)c2ccncc2n1 [compound 86, 2-methyl-4-(3-methyl-1-((4-(pyrrolidin-1-yl)bicyclo[2.2.2]octan-1-yl)methyl)-6,7-dihydro-1H-pyrazolo[4,3-c]pyridin-5(4H)-yl)-1,7-naphthyridine] | 81 nM
Cc1cc(N2CCc3c(c(C)nn3CCC34CCC(N)(CC3)CC4)C2)c2cnn(C)c2n1 [compound 91, 4-(2-(5-(1,6-dimethyl-1H-pyrazolo[3,4-b]pyridin-4-yl)-3-methyl-4,5,6,7-tetrahydro-1H-pyrazolo[4,3-c]pyridin-1-yl)ethyl)bicyclo[2.2.2]octan-1-amine] | 22 nM
Cc1cc(N2CCc3c(c(C)nn3CC34CCC(N)(CC3)CC4)C2)c2ccnc(C)c2n1 [compound 92, 4-((5-(2,8-dimethyl-1,7-naphthyridin-4-yl)-3-methyl-4,5,6,7-tetrahydro-1H-pyrazolo[4,3-c]pyridin-1-yl)methyl)bicyclo[2.2.2]octan-1-amine] | 160 nM

Continued, values first:

IC50 | SMILES
11 nM | Cc1cc(N2CCc3c(c(C)nn3CC34CCC(N5CC[C@H](O)C5)(CC3)CC4)C2)c2cnn(C)c2n1 [compound 75, (S)-1-(4-((5-(1,6-dimethyl-1H-pyrazolo[3,4-b]pyridin-4-yl)-3-methyl-4,5,6,7-tetrahydro-1H-pyrazolo[4,3-c]pyridin-1-yl)methyl)bicyclo[2.2.2]octan-1-yl)pyrrolidin-3-ol]
4 nM | Cc1cc(N2CCc3c(c(C)nn3CC34CCC(N(C)C5CCC5)(CC3)CC4)C2)c2cnn(C)c2n1 [compound 79, N-cyclobutyl-4-((5-(1,6-dimethyl-1H-pyrazolo[3,4-b]pyridin-4-yl)-3-methyl-4,5,6,7-tetrahydro-1H-pyrazolo[4,3-c]pyridin-1-yl)methyl)-N-methylbicyclo[2.2.2]octan-1-amine]
